Source: US20190216830A1, “OPHTHALMIC COMPOSITIONS” (Aciont Inc., priority 2017, published 2019)
Where “and” joins values, the source holds several entries; their conditions need not be identical. Identical values can stand only once.

Legend:
[1] = Toxicokinetic study: plasma DSP and DEX by LC-MS after single device application; assay type: in vivo, New Zealand White rabbits; conditions: after DSP application via device; all four regimens
Method: For the toxicokinetic study, there were four groups of rabbit. […] Blood was collected and processed for plasma at predose, 5, 30, 60, 120, 240, and 360 minutes, and 24, 48, 72, 96, and 168 hours after administration.
One drop of sterile proparacaine hydrochloride (a local anesthetic) was put on the eye (to be treated) 5 minutes before dose administration. […] The position of the device was checked to ensure that the active agent matrix was in immediate contact with the white part of the eye but not the cornea. Digital timers were used for accurate application times (i.e., 5, 10, or 20 minutes). After the given application duration, the applicator was carefully removed from the eye.
Approximately 1 mL of blood was collected by direct venipuncture of the jugular vein with a 3 mL syringe and 21 GA×1″ needle. […]
Briefly, the samples were assayed by Shimadzu SCL-10A controller with LC-10AD pump. […] The limit of quantitation (LOQ) of this method was 1 ng/mL.
Toxicokinetic data analysis was based on standard noncompartmental pharmacokinetic methods. […] The maximum observed plasma concentration (Cmax) was determined by visual estimation from the data plot. Area under the plasma concentration vs. time curve from 0 to the time of the last measurable concentration (AUC) was calculated by the linear trapezoidal method. […]

[2] = tested on: rabbit coronary microvessel endothelium; conditions: cited from earlier work
treated eyes (right eye) = conditions: rabbit, in vivo
Method: Ketamine hydrochloride injectable USP (100 mg/mL) and sodium chloride 0.9% USP were from Hospira, Inc. (Lake Forest, Ill.); proparacaine hydrochloride ophthalmic solution was from Bausch & Lomb (Tampa, Fla.); cyclopentolate hydrochloride ophthalmic solution was from Alcon Laboratories (Fort Worth, Tex.); xyrazine and potassium chloride (KCl) were from Sigma-Aldrich (St. Louis, Mo.). Syringes and needles were from Becton, Dickinson and Company (Franklin Lakes, N.J.). The binocular indirect ophthalmoscope used was the Keeler All Pupil II from Keeler Instruments (Broomall, Pa.) and it was complemented with the double aspheric lens 20D/50 mm for posterior chamber examination from Volk Optical Inc (Mentor, Ohio). Young adult New Zealand White rabbits each weighing 3-4 kg were obtained from Western Oregon Rabbit Co. (Philomath, Oreg.). This study complied with the ARVO Statement for the use of Animals in Ophthalmic and Vision Research and was approved by The University of Utah Institutional Animal Care and Use Committee (Salt Lake City, Utah). All animals were acclimated and observed for health issues for at least two weeks prior to being used in the study.
For the ocular toxicity study, there were four groups. […]
Body weights of the animal were taken upon arrival, and then monthly. […] Observations on the anterior and posterior segments of the eye were made, graded, and recorded. […]

| Compound | Tmax of DEX in plasma [1] [min] | Concentration that can inhibit prostaglandin release [2] | Ocular findings in treated eyes (conjunctival injection, discharge, corneal haze) (treated eyes (right eye)) |
| --- | --- | --- | --- |
| C[C@@H]1C[C@H]2[C@@H]3CCC4=CC(=O)C=C[C@]4(C)[C@@]3(F)[C@@H](O)C[C@]2(C)[C@@]1(O)C(=O)CO [DEX, dexamethasone] | 30 | 10^−7 M and ~40 ng/mL |  |
| C[C@@H]1C[C@H]2[C@@H]3CCC4=CC(=O)C=C[C@]4(C)[C@@]3(F)[C@@H](O)C[C@]2(C)[C@@]1(O)C(=O)COP(=O)(O)O [DSP, Dexamethasone sodium phosphate] |  |  | transient and mild in nature |
